The source of these data is ChEMBL document CHEMBL5291721, “A preclinical secondary pharmacology resource illuminates target-adverse drug reaction associations of marketed drugs” (Nat Commun, 2023).

The target in assay [1] is T1, Glucocorticoid receptor (Homo sapiens, UniProt P04150).
T1 sequence (P04150 whole entry): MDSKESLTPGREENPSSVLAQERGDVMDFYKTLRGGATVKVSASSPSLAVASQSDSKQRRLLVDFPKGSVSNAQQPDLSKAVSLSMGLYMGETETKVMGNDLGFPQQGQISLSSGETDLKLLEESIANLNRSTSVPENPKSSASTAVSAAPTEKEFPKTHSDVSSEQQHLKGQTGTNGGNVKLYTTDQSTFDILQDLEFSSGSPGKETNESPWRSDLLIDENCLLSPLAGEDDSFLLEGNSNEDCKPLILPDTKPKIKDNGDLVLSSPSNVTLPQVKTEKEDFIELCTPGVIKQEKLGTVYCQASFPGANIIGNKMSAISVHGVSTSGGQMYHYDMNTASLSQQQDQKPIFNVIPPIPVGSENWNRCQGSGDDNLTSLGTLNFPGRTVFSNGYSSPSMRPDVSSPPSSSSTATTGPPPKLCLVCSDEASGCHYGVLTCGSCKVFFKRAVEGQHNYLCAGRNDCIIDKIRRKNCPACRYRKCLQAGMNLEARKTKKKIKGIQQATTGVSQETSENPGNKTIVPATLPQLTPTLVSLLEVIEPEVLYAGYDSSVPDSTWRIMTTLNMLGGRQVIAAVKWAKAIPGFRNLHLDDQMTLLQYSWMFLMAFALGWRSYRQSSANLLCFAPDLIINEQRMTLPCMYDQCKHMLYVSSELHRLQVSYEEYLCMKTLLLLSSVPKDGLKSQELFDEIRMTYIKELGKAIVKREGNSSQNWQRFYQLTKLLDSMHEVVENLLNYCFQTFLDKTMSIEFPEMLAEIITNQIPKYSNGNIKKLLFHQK

Assay [2] concerns the target T2, 5-hydroxytryptamine receptor 1A (Homo sapiens, UniProt P08908).
T2 sequence (P08908 whole entry): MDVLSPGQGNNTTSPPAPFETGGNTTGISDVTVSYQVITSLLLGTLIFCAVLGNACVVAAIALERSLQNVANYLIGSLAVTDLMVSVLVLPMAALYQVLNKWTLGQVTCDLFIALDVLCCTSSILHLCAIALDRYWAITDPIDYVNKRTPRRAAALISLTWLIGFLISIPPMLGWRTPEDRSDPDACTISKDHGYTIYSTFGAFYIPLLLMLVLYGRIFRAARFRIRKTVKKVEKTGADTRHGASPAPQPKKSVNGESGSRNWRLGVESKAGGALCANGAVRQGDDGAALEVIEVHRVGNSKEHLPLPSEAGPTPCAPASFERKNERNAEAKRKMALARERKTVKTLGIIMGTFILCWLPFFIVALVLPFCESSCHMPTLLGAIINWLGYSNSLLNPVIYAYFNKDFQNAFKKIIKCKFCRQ
Type of assay: functional, cell-based.

For assay [3], the target named is Glutamate receptor ionotropic, NMDA 1 (Rattus norvegicus, UniProt P35439).
Assay [4] has as its target T3, Muscarinic acetylcholine receptor M1 (Homo sapiens, UniProt P11229).
T3 sequence (P11229 whole entry): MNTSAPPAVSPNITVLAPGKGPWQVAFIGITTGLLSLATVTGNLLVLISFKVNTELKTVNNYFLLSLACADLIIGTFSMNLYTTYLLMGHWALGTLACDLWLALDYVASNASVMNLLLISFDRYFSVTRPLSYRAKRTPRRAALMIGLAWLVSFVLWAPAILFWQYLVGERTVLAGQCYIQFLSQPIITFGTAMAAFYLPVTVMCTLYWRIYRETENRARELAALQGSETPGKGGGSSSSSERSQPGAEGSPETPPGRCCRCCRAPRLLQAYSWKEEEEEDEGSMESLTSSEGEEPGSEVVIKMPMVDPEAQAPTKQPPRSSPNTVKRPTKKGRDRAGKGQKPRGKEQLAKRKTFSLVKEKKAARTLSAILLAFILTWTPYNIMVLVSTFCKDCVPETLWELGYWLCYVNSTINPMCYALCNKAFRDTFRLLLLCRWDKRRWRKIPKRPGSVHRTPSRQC
Type of assay: functional.

The target of assay [5] is Histamine H2 receptor (Homo sapiens, UniProt P25021). Type of assay: functional, cell-based.
Assay [6] deals with T4, Progesterone receptor (Homo sapiens, UniProt P06401).
T4 sequence (P06401 whole entry): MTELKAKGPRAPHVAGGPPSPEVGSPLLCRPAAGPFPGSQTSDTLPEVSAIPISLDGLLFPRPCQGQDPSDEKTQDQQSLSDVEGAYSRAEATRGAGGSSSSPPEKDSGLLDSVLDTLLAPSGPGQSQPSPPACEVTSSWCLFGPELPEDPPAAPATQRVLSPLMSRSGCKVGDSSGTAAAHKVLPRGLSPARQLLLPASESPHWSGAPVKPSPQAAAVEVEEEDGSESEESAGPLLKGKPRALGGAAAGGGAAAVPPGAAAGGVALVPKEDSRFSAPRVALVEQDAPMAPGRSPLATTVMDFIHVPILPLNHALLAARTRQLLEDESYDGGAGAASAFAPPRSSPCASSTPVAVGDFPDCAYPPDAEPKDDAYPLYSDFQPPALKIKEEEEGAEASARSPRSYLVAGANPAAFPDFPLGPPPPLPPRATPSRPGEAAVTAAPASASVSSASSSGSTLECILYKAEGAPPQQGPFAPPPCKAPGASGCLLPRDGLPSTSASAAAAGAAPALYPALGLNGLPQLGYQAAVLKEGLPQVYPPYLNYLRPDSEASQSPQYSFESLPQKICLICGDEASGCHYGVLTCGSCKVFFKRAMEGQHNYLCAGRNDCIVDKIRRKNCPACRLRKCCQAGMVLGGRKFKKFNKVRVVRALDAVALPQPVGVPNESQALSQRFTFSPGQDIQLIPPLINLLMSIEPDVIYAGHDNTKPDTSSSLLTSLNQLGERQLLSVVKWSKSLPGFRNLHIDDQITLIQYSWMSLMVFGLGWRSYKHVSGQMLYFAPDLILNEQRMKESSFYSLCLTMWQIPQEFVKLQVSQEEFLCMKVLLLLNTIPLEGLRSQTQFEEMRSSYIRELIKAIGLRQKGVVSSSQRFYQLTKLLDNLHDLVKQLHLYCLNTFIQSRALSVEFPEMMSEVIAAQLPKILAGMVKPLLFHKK
In kind it is functional.
Note: assay procedure not described here.

Chain of Histamine H2 receptor (P25021 whole entry): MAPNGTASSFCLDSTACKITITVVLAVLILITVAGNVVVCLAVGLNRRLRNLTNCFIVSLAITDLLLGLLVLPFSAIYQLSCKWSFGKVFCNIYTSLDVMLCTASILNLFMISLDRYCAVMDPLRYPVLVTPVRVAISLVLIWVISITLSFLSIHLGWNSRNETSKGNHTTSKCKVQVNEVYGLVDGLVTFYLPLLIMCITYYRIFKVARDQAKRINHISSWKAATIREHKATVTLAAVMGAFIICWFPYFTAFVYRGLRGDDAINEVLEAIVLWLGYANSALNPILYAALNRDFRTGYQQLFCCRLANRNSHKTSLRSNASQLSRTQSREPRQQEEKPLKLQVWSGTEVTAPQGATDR

As to `CN1CC(=O)N2[C@H](c3ccc4c(c3)OCO4)c3[nH]c4ccccc4c3C[C@@H]2C1=O`, the concentration at half-maximal activity (AC50) is over 30 µM in assay [1]; over 10 µM in assay [2]; over 10 µM in assay [3]; over 10 µM in assay [4]; over 10 µM in assay [5].
As for `COc1ccc2cccc(CCNC(C)=O)c2c1` [AGOMELATINE], the AC50 in assay [1] was over 30 µM; in assay [2], over 30 µM; in assay [3], over 10 µM; in assay [4], over 10 µM; in assay [5], over 30 µM.
In the case of `CC(=O)OCC(=O)[C@@]12OC3(CCCC3)O[C@@H]1C[C@H]1[C@@H]3CCC4=CC(=O)C=C[C@]4(C)[C@@]3(F)[C@@H](O)C[C@@]12C` [AMCINONIDE], the concentration at half-maximal activity (AC50) is 0.016 µM in assay [1]; over 10 µM in assay [2]; over 10 µM in assay [3]; over 10 µM in assay [4]; over 10 µM in assay [5].
For `CN1CCc2cccc3c2[C@H]1Cc1ccc(O)c(O)c1-3` [APOMORPHINE], the half-maximal activity concentration (AC50) in assay [1] is over 30 µM; in assay [3], over 10 µM; in assay [4] it was over 30 µM; in assay [5], over 10 µM.
Take `CC(C)c1c(C(=O)Nc2ccccc2)c(-c2ccccc2)c(-c2ccc(F)cc2)n1CC[C@@H](O)C[C@@H](O)CC(=O)O` [ATORVASTATIN]: the AC50 in assay [2], in assay [3] and in assay [5] was over 10 µM throughout.
Regarding `CN1C(=O)COc2c(C(=O)NC3CN4CCC3CC4)cc(Cl)cc21` (stereo not given) [AZASETRON], the AC50 in assay [6], in assay [2], in assay [3] and in assay [5] was over 30 µM each time.
With `NC(CO)C(=O)NNCc1ccc(O)c(O)c1O` (stereo not given) [BENSERAZIDE], the AC50 in assay [2], in assay [3], in assay [4] and in assay [5] was over 10 µM throughout.
For `CN(C)C(=O)OC1N=C(c2ccccc2)c2cc(Cl)ccc2N(C)C1=O` (stereo not given) [CAMAZEPAM], the AC50 in assay [1] was over 30 µM; in assay [2], over 10 µM; in assay [3], over 10 µM; in assay [4], over 10 µM; in assay [5] it was over 10 µM.
Take `CC(C)C(=O)OCC(=O)[C@@]12O[C@H](C3CCCCC3)O[C@@H]1C[C@H]1[C@@H]3CCC4=CC(=O)C=C[C@]4(C)[C@H]3[C@@H](O)C[C@@]12C` [CICLESONIDE]: the half-maximal activity concentration (AC50) in assay [2], in assay [3], in assay [4] and in assay [5] was over 10 µM each time.
`CCOc1cc(N)c([N+](=O)[O-])cc1C(=O)NC1CCN(CC2CC=CCC2)CC1` (stereo not given) [CINITAPRIDE]: the AC50 in assay [1] was over 30 µM; in assay [2] it was over 30 µM; in assay [3] it was over 30 µM; in assay [4] it was 14 µM; in assay [5] it was over 30 µM.
As for `CN[C@@H](C)[C@H](O)c1ccccc1` [EPHEDRINE], the AC50 in assay [1] was over 30 µM; in assay [2], over 10 µM; in assay [3], over 10 µM; in assay [4], over 10 µM; in assay [5], over 10 µM.
Regarding `CCNC(C)Cc1cccc(C(F)(F)F)c1` (stereo not given) [FENFLURAMINE], the AC50 in assay [1] was over 30 µM; in assay [3], over 10 µM.
As for `CCN1CCC[C@H]1CNC(=O)c1cc(S(N)(=O)=O)ccc1OC` [LEVOSULPIRIDE], the AC50 in assay [1] was over 30 µM; in assay [2], over 30 µM; in assay [3] it was over 10 µM; in assay [5], over 10 µM.
As to `CC/C=C\C/C=C\C/C=C\CCCCCCCC(=O)O` [LINOLENIC ACID], the half-maximal activity concentration (AC50) in assay [2], in assay [3], in assay [4] and in assay [5] was over 30 µM throughout.
`C#C[C@]1(O)CC[C@H]2[C@@H]3CCC4=CCCC[C@@H]4[C@H]3CC[C@@]21C` [LYNESTRENOL]: the AC50 in assay [1], in assay [2], in assay [3], in assay [4] and in assay [5] was over 30 µM each time.
For `C[C@]12CCC(=O)C=C1CC[C@@H]1[C@@H]2CC[C@@]2(C)[C@H]1CC[C@]2(C)O` [METHYLTESTOSTERONE], the concentration at half-maximal activity (AC50) in assay [1] was 0.44 µM; in assay [2], over 30 µM; in assay [3] it was over 30 µM; in assay [5], over 30 µM.
As for `Cc1cc(-c2ccccc2)nnc1NCCN1CCOCC1` [MINAPRINE], the half-maximal activity concentration (AC50) in assay [2], in assay [3], in assay [4] and in assay [5] was over 10 µM each time.
As for `NC(=O)C[S+]([O-])C(c1ccccc1)c1ccccc1` (stereo not given) [MODAFINIL], the AC50 in assay [1] was over 30 µM; in assay [2], over 10 µM; in assay [3] it was over 10 µM; in assay [5], over 10 µM.
For `O=C(O)CCCc1ccccc1` [PHENYLBUTANOIC ACID], the AC50 in assay [1], in assay [2], in assay [3] and in assay [4] was over 30 µM throughout.
Consider `CC(Cc1ccccc1)NCCC(c1ccccc1)c1ccccc1` (stereo not given) [PRENYLAMINE], for which the AC50 was over 30 µM in assay [1]; over 30 µM in assay [2]; over 10 µM in assay [3]; over 10 µM in assay [4]; over 30 µM in assay [5].
As for `CCN(CC)CCOC(=O)c1ccc(N)cc1` [PROCAINE], the AC50 was over 30 µM in assay [2], over 10 µM in assay [3] and over 10 µM in assay [5].
With `C1COC(NC(C2CC2)C2CC2)=N1` [RILMENIDINE], the AC50 in assay [2] is over 30 µM; in assay [3], over 10 µM; in assay [4], over 10 µM; in assay [5] it was over 10 µM.
For the compound `Cc1c(C(=O)Nc2ccc(N3C[C@@H](C)O[C@@H](C)C3)nc2)cccc1-c1ccc(OC(F)(F)F)cc1` [SONIDEGIB], the AC50 in assay [1] was over 30 µM; in assay [3], over 10 µM; in assay [4], over 10 µM.
As for `COc1ccc(C(=O)N2CCN(c3ccc4c(c3)CCC(=O)N4)CC2)cc1OC` [VESNARINONE], the AC50 in assay [1] was 8 µM; in assay [2] it was over 30 µM; in assay [3], over 30 µM; in assay [4], over 30 µM; in assay [5], over 30 µM.

As usually defined, the AC50 is the midpoint of the concentration-response curve, whichever way the signal moves.
